Assay results as given in patent US20070167412A1, “HALOCOMBSTATINS AND METHODS OF SYNTHESIS THEREOF” (ARIZONA BOARD OF REGENTS, priority 2003, published 2007).
≈ marks a conversion by molar mass, not a printed value.

What was measured:
purified tubulin [1] = system: T1, purified tubulin; assay: inhibition of tubulin polymerization (turbidimetry); type: biochemical; details: 10 μM tubulin, GTP 0.4 mM, 30° C., extent after 20 minutes; read-out: Inhibition of polymerization IC50 ± S.D.
T1 construct: other: 10 μM tubulin, GTP 0.4 mM, 30° C., extent after 20 minutes
Method: (§1) Tubulin polymerization was evaluated by turbidimetry at 350 nm using Beckman DU7400/7500 spectrophotometers as described in detail elsewhere. […] Varying concentrations of drug were preincubated with 10 μM:M ([…]) purified tubulin (See Hamel, E., et al., Separation of Active Tubulin and Microtubule-associated Proteins by Ultracentrifiigation and Isolation of a Component Causing the Formation of Microtubule Bundles, Biochemistry 1984, 23, 4173-4184). Samples were chilled on ice, GTP (0.4 mM) was added, and polymerization was followed at 30° C. The parameter measured was extent of the reaction after 20 minutes. Coichicine binding was measured as described in detail previously. Reaction mixtures contained 1.0 μM :M tubulin, 5.0:M, [^3H]colchicine (from Dupont), and inhibitor at 1.0 μM:M. Incubation was for 10 minutes at 37° C.
Tubulin Evaluations: Tubulin polymerization was evaluated by turbidimetry at […] using Beckman DU7400/7500 spectrophotometers as known to one of skill in the art. Varying concentrations of the compound were preincubated with 10 μM. […]

tubulin [2] = assay: inhibition of [3H]colchicine binding to tubulin; details: 1.0 μM tubulin, 5.0 μM [3H]colchicine, inhibitor at 1.0 μM, 10 minutes at 37° C.
Method: as §1

Lung-NSC NCI-H460 = assay: human cancer cell growth inhibition, sulforhodamine B assay; type: cell-based; details: 48 hours
In short: (§2)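 Cells are incubated 48 hours, fixed with trichloracetic acid, then stained with sulforhodamine B. Absorbance is read automatically in microplates.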

Breast MCF-7 = assay: as above; type: cell-based; details: 48 hours
In short: as §2

Colon KM20L2 = assay: as above; type: cell-based; details: 48 hours
In short: as §2

CNS SF268 = assay: as above; type: cell-based; details: 48 hours
In short: as §2

Pancreas BXPC-3 = assay: as above; type: cell-based; details: 48 hours
In short: as §2

Prostate DU-145 = assay: as above; type: cell-based; details: 48 hours
In short: as §2

Candida albicans = assay: reference broth microdilution susceptibility assay; type: cell-based; details: Table III
In short: (§3)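 Compounds are serially diluted in broth and tested for microbial susceptibility by the standard microdilution procedure. Bacteria are handled per approved standard M7-A5 and yeasts per approved standard M27-A.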

Enterococcus faecalis = assay: reference broth microdilution susceptibility assay; type: cell-based; details: Table III
In short: (§4)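 Read-out is growth susceptibility in the NCCLS reference broth microdilution format, under M27-A for the two yeasts and under M7-A5 for the two bacteria.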

Escherichia coli = assay: reference broth microdilution susceptibility assay; type: cell-based; details: Table III
In short: as §3

Staphylococcus aureus = assay: reference broth microdilution susceptibility assay; type: cell-based; details: Table III
In short: as §4

Neisseria gonorrhoeae = assay: reference broth microdilution susceptibility assay; type: cell-based; details: Table III
In short: as §4

Cryptococcus neoformans [3] = assay: reference broth microdilution susceptibility assay; type: cell-based; details: Table III
In short: as §3

[4] = system: Stenotrophomonas maltophilia; assay: reference broth microdilution susceptibility assay; type: cell-based; details: Table III
In short: as §4

Enterobacter cloacae = assay: reference broth microdilution susceptibility assay; type: cell-based; details: Table III
In short: as §4

Micrococcus luteus = assay: reference broth microdilution susceptibility assay; type: cell-based; details: Table III
In short: as §3

Streptococcus pneumoniae = assay: reference broth microdilution susceptibility assay; type: cell-based; details: Table III
In short: as §4

[5] = system: microtubules in human umbilical vein endothelial cells (HUVEC); assay: disruption of microtubules in HUVEC; type: cell-based
Text: HUVECs were isolated according to methods know to one of skill in the art (see Jaffe, E. A. et al., Culture of Human Endothelial Cells Derived From Umbilical Veins. Identification by Morphologic and Immunologic Criteria, J. Clin. Invest. 1973, 52, 2754-2756.)

[6] = system: human umbilical vein endothelial cells (HUVEC); assay: Matrigel cord formation assay; type: cell-based; details: at both 0.01 and 0.001 μg/mL compared to untreated controls
Method: In vitro Matrigel antiangiogenesis assays were implemented according to the Developmental Therapeutics Program NCI/NIH protocols known to one of skill in the art. Matrigel, a basement membrane matrix, was obtained from BD Biosciences. Growth inhibition and cord formation assays were Conducted using human umbilical vein endothelial cells obtained from GlycoTeCh. HUVEC cells were grown in EGM-2 medium.
An aliquot of sixty microliters was placed in each well of an ice-cold 96-well plate. The plates were then left for 15 minutes at room temperature, then incubated for 30 minutes at 37° C. to permit the matrigel to polymerize. Meanwhile, HUVEC cells were harvested and diluted to a concentration of 2×10^5 cells/ml. A solution of 100 μL containing the compounds to be tested was added next. After 24 hours incubation, pictures were taken for each concentration using an inverted Nikon Diaphot microscope and D100 digital camera. Drug effect was assessed, compared to untreated controls, by measuring the length of cords formed and number ofjunctions.

solubility in D2O = type: physicochemical; details: 1 mL D2O at 25° C.
Cryptococcus neoformans [7] = details: previously shown, Pettit et al. 2000; cited from earlier work
tubulin [8] = details: earlier study, Lin et al. 1988; cited from earlier work
[9] = earlier study, Lin et al. 1988; cited from earlier work
purified tubulin [10] = details: earlier study, Lin et al. 1988; cited from earlier work

Compound	IC50 (purified tubulin [1]) [nM]	Inhibition of colchicine binding % inhibition ± S.D. (tubulin [2]) [%]	Human cancer cell line inhibition (GI50) Lung-NSC NCI-H460 (Lung-NSC NCI-H460; Table I) [µg/mL]	Human cancer cell line inhibition (GI50) Breast adn MCF-7 (Breast MCF-7; Table I) [µg/mL]	Human cancer cell line inhibition (GI50) Colon KM20L2 (Colon KM20L2; Table I) [µg/mL]	Human cancer cell line inhibition (GI50) CNS SF268 (CNS SF268; Table I) [µg/mL]	Human cancer cell line inhibition (GI50) Pancreas-a BXPC-3 (Pancreas BXPC-3; Table I) [µg/mL]	Human cancer cell line inhibition (GI50) Prostate DU-145 (Prostate DU-145; Table I) [µg/mL]	Range of minimum inhibitory concentration, Candida albicans (Candida albicans)	Range of minimum inhibitory concentration, Enterococcus faecalis (Enterococcus faecalis)	Range of minimum inhibitory concentration, Escherichia coli (Escherichia coli)	Range of minimum inhibitory concentration, Staphylococcus aureus (Staphylococcus aureus)	Range of minimum inhibitory concentration, Neisseria gonorrhoeae (Neisseria gonorrhoeae) [µg/mL]	Range of minimum inhibitory concentration, Cryptococcus neoformans (Cryptococcus neoformans [3]) [µg/mL]	Range of minimum inhibitory concentration, Stenotrophomonas maltophilia [4]	Range of minimum inhibitory concentration, Enterobacter cloacae (Enterobacter cloacae)	Range of minimum inhibitory concentration, Micrococcus luteus (Micrococcus luteus) [µg/mL]	Range of minimum inhibitory concentration, Streptococcus pneumoniae (Streptococcus pneumoniae) [µg/mL]	ability to disrupt microtubules in HUVEC [5]	also measured
3-Cloro-4,4′,5-trimethoxy-3′-hydroxy-Z-stilbene [Compound 12a]	1600 ± 300	85 ± 4	<0.001	<0.001	0.15	<0.001	0.043	<0.001	* (no inhibition at 64 μg/ml)	* (no inhibition at 64 μg/ml)	* (no inhibition at 64 μg/ml)	* (no inhibition at 64 μg/ml)	16	64	* (no inhibition at 64 μg/ml)	* (no inhibition at 64 μg/ml)	32	32 to 64	disrupt microtubules	
COc1ccc(/C=C\c2cc(F)c(OC)c(OC)c2)cc1O [Compound 11a, 3-Fluoro-4,4′,5-trimethoxy-3′-hydroxy-Z-stilbene]	1500 ± 200	75 ± 6							* (no inhibition at 64 μg/ml)	* (no inhibition at 64 μg/ml)	* (no inhibition at 64 μg/ml)	* (no inhibition at 64 μg/ml)	32	64	* (no inhibition at 64 μg/ml)	* (no inhibition at 64 μg/ml)	32 to 64	64	disrupt microtubules	GI50 (Lung-NSC NCI-H460; Homo sapiens, NCI-H460, Table I, read-out: Human cancer cell line inhibition (GI50) Lung-NSC NCI-H460): < 0.01 µg/mL; GI50 (Breast MCF-7; Homo sapiens, MCF7, Table I, read-out: Human cancer cell line inhibition (GI50) Breast adn MCF-7): < 0.01 µg/mL; GI50 (Colon KM20L2; Homo sapiens, KM-20L2, Table I, read-out: Human cancer cell line inhibition (GI50) Colon KM20L2): 1.1 µg/mL (≈ 3.61 µM); GI50 (CNS SF268; Homo sapiens, SF-268, Table I, read-out: Human cancer cell line inhibition (GI50) CNS SF268): < 0.01 µg/mL; GI50 (Pancreas BXPC-3; Homo sapiens, BXPC-3, Table I, read-out: Human cancer cell line inhibition (GI50) Pancreas-a BXPC-3): 0.016 µg/mL (≈ 0.0526 µM); GI50 (Prostate DU-145; Homo sapiens, DU-145, Table I, read-out: Human cancer cell line inhibition (GI50) Prostate DU-145): < 0.01 µg/mL; Cords length as well as junction numbers [6]: markedly reduced
C1CCNCC1.C1CCNCC1.COc1ccc(/C=C\c2cc(I)c(OC)c(OC)c2)cc1OP(=O)(O)O [O]																				Solubility (solubility in D2O): ≧4 mg/mL; human cancer cell line growth inhibition (GI50) Lung-NSC NCI-H460 (Lung-NSC NCI-H460; Table Ia): 0.0036 µg/mL; human cancer cell line growth inhibition (GI50) Breast MCF-7 (Breast MCF-7; Table Ia): 0.0065 µg/mL; human cancer cell line growth inhibition (GI50) Colon KM20L2 (Colon KM20L2; Table Ia): 0.51 µg/mL; human cancer cell line growth inhibition (GI50) CNS SF268 (CNS SF268; Table Ia): 0.0044 µg/mL; human cancer cell line growth inhibition (GI50) Pancreas BXPC-3 (Pancreas BXPC-3; Table Ia): 0.32 µg/mL; human cancer cell line growth inhibition (GI50) Prostate DU-145 (Prostate DU-145; Table Ia): 0.0029 µg/mL
combretastatin A-3 [Compound 3a, reference compound]			0.19	0.49	1.2	0.0083	2.3	0.0043												inhibition of growth of the pathogenic fungus Cryptococcus neoformans (Cryptococcus neoformans [7]): inhibited growth; activity relative to CA4 (1a) as an inhibitor of colchicine binding to tubulin (tubulin [8]): about one fifth as active; activity relative to CA4 (1a) as an inhibitor of cell growth [9]: about one seventh as active; activity relative to CA4 (1a) as an inhibitor of tubulin assembly (purified tubulin [10]): about half as active
